In patent US7794712B2, “Production of mutant strain of Aspergillus fumigatus, method of assay for inhibiting siderophore biosynthesis and diagnostic method for detecting likely Aspergillus fumigatus infection” (priority 2004, dated 2010):
Where “and” joins values, the source holds several entries; their conditions need not be identical. Identical values can stand only once.

Experiments:
[1] = tested on: A. fumigatus 13073; assay: Siderophore secretion inhibitor assay (A440 after FeCl3 addition); format: cell-based, Aspergillus fumigatus; conditions: for A440 (ferrated siderophores): 3 days; for Siderophore production as measured by A440: Neilands' medium without citrate, 48 hours
Description: In this example 96-well sterile polystyrene filter plates as described above with white Duropore membranes at the base of the plate (Millipore) were used. The plates include a thick plastic layer under the wells, which has a one-way valve function that directs fluid into a receiving 96-well plate when the filter plate is subjected to a vacuum manifold or a centrifugal force. This layer can be peeled off if the membranes are to be sampled (punched) later.
Cultures were set up in the filter plates, with controls and inhibitors to be tested. After inclubation, culture fluid was pulled into a 96-well receiver plate, using the Beckman centrifuge and a JS 5.3 rotor designed to take 96-well plates. FeCl3 was added to the receiver plates, and A430 (general siderophores) or A440 (max for TAF) was read. Growth was scored in the plate by reading A600.
To test this method, different antibiotics were used to show inhibition of siderophore production by A. fumigatus 13073, as no inhibitors for the SidA gene product are currently known. Suitable ranges of concentrations of amphotericin B (fungizone), hygromycin, and nystatin were calculated based on the literature. Spores were harvested from A. fumigatus 13073 into PBS Tween, then washed once with PBS and counted. They were then diluted into Neilands' medium (without citrate) to give solutions of 2×10^5 and 2×10^6/ml. 100 μl of 2× spores and 100 μl of 2× antibiotics to yield a volume of 200 μl of Neilands' medium in each well, with the desired final concentrations of spores, 10^5 or 10^6/ml.
Antibiotics were prepared as follows. Amphotericin B came as a liquid solution, 250 µg/ml. […] Therefore 0, 0.125, 0.25, 0.5, 1 and […] final concentration was used. Nystatin was stored it in ˜1 mg dry aliquots at −20 C, and was prepared at a concentration of 2 mg/ml in DMSO for dilution into Neilands' media. According to reported information, nystatin should be effective at 1.5 to 6.5 µg/ml; therefore, 0, 0.5, 1, 5, 10 and 50 µg/ml were used as the final concentrations. Hygromycin gold stock was in solution at 100 mg/ml, and 0, 25, 50, 100, 150 and 200 µg/ml were used as the final concentrations in Neilands' medium. Plates were incubated for 3 days at 37° C. with shaking.
To test for siderophores, 20 μL of a solution of 2 mM FeCl3 in 10 mM HCl was added to each well in the receiver plates and the A440 was recorded on a plate reader. […] An increase in A440 indicates a more intense orange-red colour that develops in the presence of ferrated siderophores. […] Because 3-day incubation produces conidia, shorter incubation periods may be preferable.
(§1) Three identical plates were set up: one filter plate and two sterile clear 96-well plates. The clear plates were used to score growth, and the filter plate was used to detect siderophores. Columns 1-6 contained Neilands' medium without citrate and amphotericin 0-2 at g/ml. Columns 7-12 contained Neilands' medium with citrate and amphotericin at […]. The rows were set up with A. fumigatus as described above, but two sets of each were set up to be in the two plates. The spores from the previous experiment were stored at −20° C. in PBS, in siliconized tubes, at 2×10^8 conidia/ml, to facilitate these experiments. Plates were incubated for 48 hours at 37° C. without shaking.
(§2) The filter plate was centrifuged at 1000×g for 10 minutes and the liquids caught in a clear non-sterile plate, to which FeCl3 was added. The plate was allowed to sit and develop orange colour, and was then read at 440 nm. The clear plates (one without Fe and one with Fe added to growth medium from the beginning) were read at 600 nm (A600). In the result, iron enhanced conidiation. Some wells of the filter plate were lightly conidiated and would not drain. These were hand pipetted.

[2] = tested on: A. fumigatus 13073; assay: Growth scored by A600 in 96-well plates with or without iron; format: cell-based, Aspergillus fumigatus; conditions: 48 hours
Procedure: Siderophore production and growth was scored by using one antibiotic (amphotericin B) with two types of media (Neilands' with and without citrate), using the same spore concentrations as given above, but a shorter incubation time. Generally, this portion of the assay would be carried out when there was a potential inhibitor which scored positively in the first round of screening. Growth is scored with and without iron in the media.
as §1, §2

[3] = tested on: invasive aspergillosis; conditions: with prophylaxis and treatment; cited from earlier work

C[C@@H]1[C@H](O)[C@@H](C)/C=C/C=C/C=C/C=C/C=C/C=C/C=C/[C@H](O[C@@H]2O[C@H](C)[C@@H](O)[C@H](N)[C@@H]2O)C[C@@H]2O[C@](O)(C[C@@H](O)C[C@@H](O)[C@H](O)CC[C@@H](O)C[C@@H](O)CC(=O)O[C@H]1C)C[C@H](O)[C@H]2C(=O)O [amphotericin B]
A440 (ferrated siderophores) ([1]; amphotericin B 0.13 μg/ml, 1.00E+05 spores/ml): 0.178 and 0.156 and 0.145 | A440 (ferrated siderophores) ([1]; amphotericin B 0.13 μg/ml, 1.00E+06 spores/ml): 0.211 and 0.200 | Siderophore production as measured by A440 ([1]; amphotericin B 0.13 μg/ml, 100000 spores/ml): 0.047 and 0.042 | A440 (ferrated siderophores) ([1]; amphotericin B 0.25 μg/ml, 1.00E+05 spores/ml): 0.038 and 0.039 and 0.040 | A440 (ferrated siderophores) ([1]; amphotericin B 0.25 μg/ml, 1.00E+06 spores/ml): 0.085 and 0.168 and 0.130 | Siderophore production as measured by A440 ([1]; amphotericin B 0.25 μg/ml, 100000 spores/ml): 0.044 and 0.043 | Siderophore production as measured by A440 ([1]; amphotericin B 0.25 μg/ml, 1000000 spores/ml): 0.047 and 0.046 and 0.048 | A440 (ferrated siderophores) ([1]; amphotericin B 0.50 μg/ml, 1.00E+05 spores/ml): 0.042 and 0.040 and 0.039 | A440 (ferrated siderophores) ([1]; amphotericin B 0.50 μg/ml, 1.00E+06 spores/ml): 0.038 and 0.042 and 0.035 | Siderophore production as measured by A440 ([1]; amphotericin B 0.50 μg/ml, 100000 spores/ml): 0.042 and 0.043 and 0.046 | Siderophore production as measured by A440 ([1]; amphotericin B 0.50 μg/ml, 1000000 spores/ml): 0.043 and 0.042 | A440 (ferrated siderophores) ([1]; amphotericin B 1.00 μg/ml, 1.00E+05 spores/ml): 0.032 and 0.039 and 0.036 | Siderophore production as measured by A440 ([1]; amphotericin B 1 μg/ml, 100000 spores/ml): 0.042 and 0.041 and 0.045 | Siderophore production as measured by A440 ([1]; amphotericin B 1 μg/ml, 1000000 spores/ml): 0.05 and 0.047 | A440 (ferrated siderophores) ([1]; amphotericin B 2.00 μg/ml, 1.00E+05 spores/ml): 0.041 and 0.034 | A440 (ferrated siderophores) ([1]; amphotericin B 2.00 μg/ml, 1.00E+06 spores/ml): 0.036 and 0.034 | Siderophore production as measured by A440 ([1]; amphotericin B 2 μg/ml, 100000 spores/ml): 0.045 | Siderophore production as measured by A440 ([1]; amphotericin B 2 μg/ml, 1000000 spores/ml): 0.044 and 0.043 and 0.045 | Effect of iron on growth inhibition ([2]; Neilands' medium with vs without Fe): addition of iron did not change the pattern of growth inhibition | Growth as measured by A600 ([2]; amphotericin B 0.13 μg/ml, 1000000 spores/ml, Neilands' medium without citrate or Fe): 0.137 and 0.113 and 0.168 | Growth as measured by A600 ([2]; amphotericin B 0.13 μg/ml, 1000000 spores/ml, Neilands' medium without citrate with Fe): 0.139 and 0.113 and 0.169 | Growth as measured by A600 ([2]; amphotericin B 0.25 μg/ml, 100000 spores/ml, Neilands' medium without citrate or Fe): 0.068 and 0.083 and 0.076 | Growth as measured by A600 ([2]; amphotericin B 0.25 μg/ml, 100000 spores/ml, Neilands' medium without citrate with Fe): 0.067 and 0.091 and 0.076 | Growth as measured by A600 ([2]; amphotericin B 0.25 μg/ml, 1000000 spores/ml, Neilands' medium without citrate or Fe): 0.111 and 0.126 and 0.157 | Growth as measured by A600 ([2]; amphotericin B 0.25 μg/ml, 1000000 spores/ml, Neilands' medium without citrate with Fe): 0.11 and 0.126 and 0.157 | Growth as measured by A600 ([2]; amphotericin B 0.50 μg/ml, 100000 spores/ml, Neilands' medium without citrate or Fe): 0.035 | Growth as measured by A600 ([2]; amphotericin B 0.5 μg/ml, 100000 spores/ml, Neilands' medium without citrate with Fe): 0.035 and 0.034 | Growth as measured by A600 ([2]; amphotericin B 0.50 μg/ml, 1000000 spores/ml, Neilands' medium without citrate or Fe): 0.038 and 0.039 and 0.037 | Growth as measured by A600 ([2]; amphotericin B 0.5 μg/ml, 1000000 spores/ml, Neilands' medium without citrate with Fe): 0.038 and 0.039 | Growth as measured by A600 ([2]; amphotericin B 1 μg/ml, 100000 spores/ml, Neilands' medium without citrate or Fe): 0.035 and 0.036 | Growth as measured by A600 ([2]; amphotericin B 1 μg/ml, 100000 spores/ml, Neilands' medium without citrate with Fe): 0.035 | Growth as measured by A600 ([2]; amphotericin B 1 μg/ml, 1000000 spores/ml, Neilands' medium without citrate or Fe): 0.039 and 0.038 | Growth as measured by A600 ([2]; amphotericin B 1 μg/ml, 1000000 spores/ml, Neilands' medium without citrate with Fe): 0.039 | Growth as measured by A600 ([2]; amphotericin B 2 μg/ml, 100000 spores/ml, Neilands' medium without citrate or Fe): 0.035 and 0.036 | Growth as measured by A600 ([2]; amphotericin B 2 μg/ml, 100000 spores/ml, Neilands' medium without citrate with Fe): 0.035 | Growth as measured by A600 ([2]; amphotericin B 2 μg/ml, 1000000 spores/ml, Neilands' medium without citrate or Fe): 0.038 and 0.039 | Growth as measured by A600 ([2]; amphotericin B 2 μg/ml, 1000000 spores/ml, Neilands' medium without citrate with Fe): 0.038 and 0.039 | Mortality rate if the disease spreads to the central nervous system [3]: ~100% | Mortality rate, pulmonary aspergillosis [3]: 65%
